US20190231411A1, “METHOD FOR PREDICTING CYTOTOXICITY OF COLD ATMOSPHERIC PLASMA TREATMENT ON CANCER CELLS” (U.S. Patent Innovations, LLC, priority 2018, published 2019)

System: B16F10 cells
Test: H2O2 treatment, MTT cell viability assay
Assay type: cell-based, murine
Conditions: compared with the other cell lines, FIG. 7B
Description: Cell cultures. The experiment investigated 10 cancer cell lines, which include many representative cell lines in plasma medicine. Human pancreas ductal adenocarcinoma cell line (PANC-1) was purchased from American Type Culture Collection (ATCC). Other cell lines were donated by several labs at the George Washington University. These cells were all purchased from ATCC by the different labs. Human pancreatic adenocarcinoma cell line (PA-TU-8988T), human glioblastoma cell line (U87MG), as well as human lung carcinoma cell line (A549) were provided by Dr. Murad's lab. Human breast cancer cell lines (MDA-MB-231, MCF-7) were provided by Dr. Zhang's lab. Human ovarian carcinoma cell line (SK-OV-3), human ovarian carcinoma cell line (IGROV-1), human colorectal carcinoma cell line (HCT116), as well as human bone osteosarcoma cell line (U-2 OS) were provided by Dr. Zhu's lab. Murine melanoma cell line (B16F10) was provided by Dr. Sotomayor's lab. […]
Cell viability assay. […] The absorbance at 570 nm was measured by a H1 microplate reader (Hybrid Technology). The measured absorbance was processed to be a relative cell viability by the division between the data of the experimental group and the control group.

Structure (SMILES): OO [H2O2]
- resistance to H2O2 treatment: strongest resistance to H2O2 treatment
